Source: patent US4147767A, “Albumin medicament carrier system” (priority 1977, dated 1979)

Tested on: L-676 mouse embryo fibroblasts
Experiment: Mouse L-Cell growth inhibition test
Format: cell-based
Details: 72 hours
Protocol: L-676 mouse embryo fibroblasts were grown and maintained in liquid shake cultures of Swims-67G medium fortified by the addition of 5% fetal calf serum and supplemented with 1%, 200 millimolar glutamine.
Free drugs (without a carrier) used as controls were solubilized in either sterile distilled water or acetone and then added to the growth medium.
Drug containing HSA spherules were resuspended in growth medium. A sonifying water bath was employed to aid in suspension.
A 10% (v/v) inoculum of L-cells was employed in a final volume of 20 ml of growth medium containing suspended drug-containing microspheres or free control drug. […] All tests were performed in duplicate.

| SMILES | % L-Cell Inhibition (50 micrograms drug/ml) [%] | % L-Cell Inhibition (1 microgram drug/ml) [%] | % L-Cell Inhibition (10 micrograms drug/ml) [%] | % L-Cell Inhibition (25.0 μg drug/ml) [%] | % L-Cell Inhibition (100 micrograms drug/ml) [%] |
| --- | --- | --- | --- | --- | --- |
| Sc1ncnc2nc[nH]c12 [6-Mercaptopurine] | 94 | – | – | – | – |
| Nc1nc2nc[nH]c2c(=S)[nH]1 [6-Thioguanine] | 92 | 65 | 88 | – | – |
| CS(=O)(=O)OCCCCOS(C)(=O)=O [Busulfan] | – | – | – | 69 | – |
| O=C(O)CCCc1ccc(N(CCCl)CCCl)cc1 [Chlorambucil] | 97 | 0 | 68 | – | – |
| COc1cc2c(c(OC)c1OC)-c1ccc(OC)c(=O)cc1[C@@H](NC(C)=O)CC2 [Colchicine] | – | 91 | 99 | – | – |
| CC(=O)OCC(=O)[C@@]1(O)CC[C@H]2[C@@H]3CCC4=CC(=O)CC[C@]4(C)[C@H]3[C@@H](O)C[C@@]21C [Hydrocortisone Acetate] | 73 | 0 | 0 | – | 88 |
| NC(=O)NO [Hydroxyurea] | – | 0 | 22 | – | – |
| O=c1[nH]cc(F)c(=O)[nH]1 [Pure 5-fluorouracil, 5-fluorouracil] | 93 | 67 | 88 | – | 93 |
